Results taken from US9271934B2, “Water dispersible glyceryl monooleate magnetic nanoparticle formulation” (Institute of Life Sciences, priority 2009, dated 2016).

Key:
[1] = system: MCF-7 (breast cancer) cell line; assay: Mitogenic (MTT) assay, antiproliferative effect in MCF-7 cells; format: cell-based
Description: The cell culture experiments were carried out in MCF-7 (breast cancer) cell line purchased from American Type Culture Collection (ATCC, Manassas, Va.) were grown in RPMI 1640 medium (Himedia Laboratories Pvt. Ltd., Mumbai, India) supplemented with 10% fetal bovine serum (Himedia Laboratories Pvt. Ltd., Mumbai, India) and 100 μg/ml penicillin G and 100 μg/ml streptomycin (Gibco BRL, Grand island, NY) at 37° C. in a humidified and 5% CO2 atmosphere (Hera Cell, Thermo Scientific, Waltham, Mass.).
(§1) To find out the cytotoxicity of the anticancer drugs, mitogenic assay was carried out. The MCF-7 cells were seeded at 5,000 per well in 96 well plate (Corning, N.Y., USA) and kept in the incubator for 24 hours for better cell attachment. […] Glyceryl monooleate (GMO) Magnetic nanoparticles (MNPs) without drug and medium were used as respective controls. The medium was changed on 2nd and 4th days following the drug treatment; no further dose of drug was added. Viability of the cells was determined at 5th day. After the specified incubation time, 10 μl MTT (Sigma) was added, and the plates were incubated for 3 hours at 37° C. in a cell culture incubator (Hera Cell, Thermo Scientific, Waltham, Mass.), following which the intracellular formazan crystals were solubilized in dimethyl sulfoxide and the color intensity was measured at 540 nm using a microplate reader (Synergy HT, BioTek Instruments, Inc., Winooski, Vt.). The antiproliferative effect of different treatments was calculated as a percentage of cell growth with respect to respective controls.
The cell culture experiments were carried out in MCF-7 (breast cancer) cell line purchased from American Type Culture Collection (ATCC, Manassas, Va.) were grown in RPMI 1640 medium (Himedia Laboratories PVT. LTD., Mumbai, India) supplemented with 10% fetal bovine serum (Himedia Laboratories Pvt. Ltd., Mumbai, India) and 100 μg/ml penicillin G and 100 μg/ml streptomycin (Gibco BRL, Grand island, NY) at 37° C. in a humidified and 5% CO2— atmosphere (Hera Cell, Thermo Scientific, Waltham, Mass.).
as §1, with “GMO-MNPs” for “Glyceryl monooleate (GMO) Magnetic nanoparticles (MNPs)”

[2] = system: human erythrocytes; details: pluronic used as emulsifying agent for amphotericin-B; cited from earlier work
[3] = higher doses; cited from earlier work
[4] = MCF-7, MTT day 5, highest concentration of the range (1000 ng/ml, printed for paclitaxel)
[5] = MCF-7, MTT day 5, lowest concentration of the range (1 ng/ml, printed for paclitaxel)

| IC50 ([1]; Homo sapiens, MCF7, 120 h, MCF-7 cells, MTT assay on day 5, medium changed on days 2 and 4) [µg/mL] | Compound | cell viability percentage [1, 4] | cell viability percentage [1, 5] [%] | concentration with detectable cell lysis of human erythrocytes [2] [µg/mL] | effect on cholesterol and triglycerides in the blood plasma [3] |
| --- | --- | --- | --- | --- | --- |
|  | CC(=O)O[C@H]1C(=O)[C@@]2(C)[C@H]([C@H](OC(=O)c3ccccc3)[C@]3(O)C[C@H](OC(=O)[C@H](O)[C@@H](NC(=O)c4ccccc4)c4ccccc4)C(C)=C1C3(C)C)[C@]1(OC(C)=O)CO[C@@H]1C[C@@H]2O [paclitaxel, Paclitaxel] | about 30% | 95 |  |  |
| 0.0588 | CO[C@H]1C[C@@H]2CC[C@@H](C)[C@@](O)(O2)C(=O)C(=O)N2CCCC[C@H]2C(=O)O[C@H]([C@H](C)C[C@@H]2CC[C@@H](O)[C@H](OC)C2)CC(=O)[C@H](C)/C=C(\C)[C@@H](O)[C@@H](OC)C(=O)[C@H](C)C[C@H](C)/C=C/C=C/C=C/1C [rapamycin] | 37% | 65 |  |  |
|  | Pluronic F-127 |  |  | 16 | elevation of cholesterol and triglycerides in the blood plasma |
